# Source: patent US20190254299A1, “METHODS OF HANDLING AVOCADOS AND SYSTEM” (AGROFRESH INC., priority 2012, published 2019)
# Tests used:
# Type in all cases: in vivo
# avocados [1] = experiment: Skin color rating, ethylene-treated fruit, Example 6; set-up: key to Skin Color ratings: 1 = full green to 5 = purple-black; conditions: for Skin Color ratings: ethylene-treated, 900 ppb MCP
# Description: (§1) Avocado skin color was rated using the following scale: • 1=full green • 2=green with traces of brown • 3=half green and half brown • 4=brown with traces of green • 5=purple-black
# (§2) Avocados were harvested, handled, and tested as in Example 1. Fruits were placed into MAP bags or else into “Poly bags” (plastic bags having more than 10 holes per bag, with each hole larger than 1 cm in diameter).
# (§3) Three fruits (approximately 1.8 kg of fruit) were placed in each bag. After placement into bags, fruit was exposed to ethylene (200 ppm for 24 hours at 22° C.). Then, the fruit was exposed to 1-MCP (900 ppb for 15 hours at 22° C.).
# avocados [2] = experiment: Pulp firmness by penetrometer, Example 1 (California)
# Method: (§4) As used herein, the “pulp firmness” of an avocado is measured using a penetrometer (Fruit Test™ FT40 penetrometer, from Wagner Instruments) having a plunger diameter of 8 mm Performing the test for pulp firmness destroys the avocado that is tested. When avocados are said herein to be treated in a certain way (e.g., harvested, shipped, exposed to a cyclopropene compound, etc.) when they have a certain specified pulp firmness, it is meant that, out of a group of avocados that have been harvested and treated as uniformly as reasonably possible, a sample of a relatively small number of avocados is removed and tested for pulp firmness. The large group of avocados is considered to have the pulp firmness that is the average value of the tests performed on the relatively small sample.
# (§5) Pulp firmness was evaluated by peeling open 4 cm^2 of the avocado's peel using a fruit peeler provided with the penetrometer. The penetrometer was mounted on a manual stand with a lever to deliver unifoim force throughout the test. The avocado was placed with the peeled surface beneath the penetrometer tip with probe diameter of 8 mm, and the force required to punch through the pulp was measured. Each fruit was tested in 3 places.
# (§6) Avocados were harvested in Oxnard, Calif., USA and packed in cardboard boxes and shipped to Sacramento, Calif, USA. After 2 days of transportation part of the avocados were packed in MAP bags. The appropriate weight of avocados was placed in each bag after harvest and shipment. Bags were placed in RPC (Recycle Plastic Container) carrying devices. Avocados then were stored at room temperature (22° C.).
# (§7) The Test Protocol that was used was as follows. 60 MAP bags were packed. Each hag held approximately 1.7 kg (3.8 lb) of avocados. Three such bags were packed in each RPC. Total weight of avocados in MAP bags was approximately 102 kg. Approximately 51 kg of avocados were placed into RPC identical to those used for the MAP bags. The MAP-packaged avocados were packaged as follows: Nine fruits, approximately 1.7 kg (3.8 lb) were carefully placed into MAP bags, and the bags were sealed by twisting the open side of the bag, folding down the twisted end, and placing a rubber band around the twisted and folded end of the bag.
# (§8) Avocados were harvested with a very high firmness (not possible to measure with FTA Machines (Firmness Texture Analyzer)). The FTA higher limit was 156 N (351 bf). To monitor the ripening process of the avocados, extra fruits were bagged in MAP bags and the firmness was monitored every day, twice a day until the fruits achieve an average firmness of 111 N (25 lbf). All avocados were kept at room temperature (22° C.) until achieving an average firmness of 111 N (251 bf).
# (§9) After achieving an average firmness of 111 N (25 lbf) the avocados were randomly divided into treatment sets as follows:
# (§10) On the same day the avocados achieved 111 N (25 lbf) of average firmness, each treatment set was marked, placed in a hermetical chamber at room temperature (22° C.). All chambers were of equal size and packed the same way. Treatment was for 12 hr. In the chambers for the 3 “MCP” treatment groups, at the beginning of the treatment period, SmartFresh™ SmartTabs™ tablets (AgroFresh, Inc.) were placed in the chamber. The amount of SmartFresh™ SmartTabs™ tablets was chosen to achieve the indicated concentration of 1-methylcyclopropene in the atmosphere of the chamber. The SmartTabs™ tablets were contacted with water in the normal way to release 1-MCP.
# (§11) After the treatment in the chambers, the RPCs were moved into racks at room temperature for storage and observation. Avocados remained in the same bags throughout the packing, treatment in the chamber, and subsequent storage. Evaluation for skin color and pulp firmness was as follows. Day “zero” was the day the avocados were removed from the chamber and placed in storage. Each test result was the average of 12 fruits.
# avocados [3] = experiment: Skin color rating of avocados, Example 1 (California); set-up: key: 1 = full green, 3 = half green/half brown, 5 = purple-black
# Description: as §1, §6, §7, §8, §9, §10, §11
# avocados [4] = experiment: Additional RipeLock applications, Example 8; conditions: seven days at 22° C.
# Description: Avocados are harvested, handled, and tested as in previous examples. Control samples have no bag and no SmartFresh (1-methylcyclopropene or 1-MCP) application. SmartFresh samples have no bags but with 500 ppb SmartFresh (1-methylcyclopropene or 1-MCP) application. MAP samples use the 31b MAP bags but no SmartFresh (1-methylcyclopropene or 1-MCP) application. RipeLock samples have the 3 lb MAP bags with various concentrations of SmartFresh (1-methylcyclopropene or 1-MCP) applications, including 10 ppb, 50 ppb, 100 ppb, 500 ppb, 1500 ppb, 3000 ppb, and 4500 ppb. Average fruit in each sample is about 3.8 lb. Ethylene is treated after packing at 200 ppm for twenty-four hours. Evaluations are performed seven days at 22° C. after SmartFresh (1-methylcyclopropene or 1-MCP) applications.
# Data of pulp firmness of avocado tested are shown in FIG. 6 (with ethylene) and FIG. 7 (without ethylene).
# avocados [5] = experiment: RipeLock applications, Example 7; conditions: FIG. 5, firmness
# Description: Avocados are harvested, handled, and tested as in previous examples. Control samples have no bag and no SmartFresh (1-methylcyclopropene or 1-MCP) application. SmartFresh samples have no bags hut with 600 ppb SmartFresh (1-methylcyclopropene or 1-MCP) application. MAP samples use the 31b MAP bags but no SmartFresh (1-methylcyclopropene or 1-MCP) application. RipeLock 300 samples have the 31b MAP bags with 300 ppb SmartFresh (1-methylcyclopropene or 1-MCP) application. RipeLock 600 samples have the 31b MAP bags with 600 ppb SmartFresh (1-methylcyclopropene or 1-MCP) application. RipeLock 900 samples have the 31b MAP bags with 900 ppb SmartFresh (1-methylcyclopropene or 1-MCP) application. Average fruit in each sample is about 3.81b.
# Oxygen (O2) concentrations of samples tested are shown in FIG. 1, and carbon dioxide (CO2) concentrations of samples tested are shown in FIG. 2.
# avocados [6] = experiment: Skin color on day 8, Example 3; set-up: key: 1: full green; 2: green with traces of brown; 3: half green and half brown; 4: brown with traces of green; 5: purple-black; conditions: 1000 ppb MCP
# Method: as §1
# Avocados were harvested in Mexico and shipped to Pennsylvania, USA. 48 fruits were tested. When the fruits reached pulp firmness of 71 N (16 lbf), half of the fruits were exposed to atmosphere having 1000 ppb of MCP at 21.1° C. for 12 hours and half were not. Immediately after treatment, fruits were placed in MAP bags. The number of fruits per bag was either 1, 2, 3, 4, or 10. Two MCP-treated fruits were left out of any MAP, and two fruits not exposed to MCP were also left out of any MAP. All fruits were then stored at 21° C. (70° F.). On the eighth day after exposure to atmosphere containing MCP, fruits were tested with the following results. The results shown are the averages for all the fruits tested in each category.
# Avocados were harvested and shipped as in Example 2. Treatment was performed when pulp thinness reached 98 N (22 lbf). 50 fruits were tested. Otherwise the treatment and handling was the same as in Example 2. Results (average of all fruits tested in each category) were as follows: […]
# avocados [7] = experiment: Pulp firmness, ethylene-treated fruit, Example 6; conditions: for Pulp Firmness Difference from the Control Sample: ethylene-treated, 900 ppb MCP, control Poly bag, 0 MCP
# Method: as §4, §5, §2, §3
compound,measurement,setting,value
"CC1=CC1 [MCP, 1-methylcyclopropene]",skin color compared with other treatments,"avocados [1]; MAP bags and 900 ppb of 1-MCP, days 1, 2, and 3",best skin color
same,Skin Color ratings,"avocados [1]; MAP bag, day 0",2.1
same,Skin Color ratings,"avocados [1]; MAP bag, day 1",3.0
same,Skin Color ratings,"avocados [1]; MAP bag, day 2",3.3
same,Skin Color ratings,"avocados [1]; MAP bag, day 3",3.4
same,Skin Color ratings,"avocados [1]; MAP bag, day 4",4.4
same,Skin Color ratings,"avocados [1]; Poly bag, day 0",4.1
same,Skin Color ratings,"avocados [1]; Poly bag, day 1",4.9
same,Skin Color ratings,"avocados [1]; Poly bag, day 2",4.8
same,Skin Color ratings,"avocados [1]; Poly bag, day 3",4.8
same,Skin Color ratings,"avocados [1]; Poly bag, day 4",4.9
same,Pulp Firmness - Difference from Untreated Control,"avocados [2]; MAP bag, 300 ppb MCP, day 0",90 Ns
same,Pulp Firmness - Difference from Untreated Control,"avocados [2]; MAP bag, 300 ppb MCP, day 1",22 Ns
same,Pulp Firmness - Difference from Untreated Control,"avocados [2]; MAP bag, 300 ppb MCP, day 2",36 Ns
same,Pulp Firmness - Difference from Untreated Control,"avocados [2]; MAP bag, 300 ppb MCP, day 3",41.3 Ns
same,Pulp Firmness - Difference from Untreated Control,"avocados [2]; MAP bag, 300 ppb MCP, day 4",33 Ns
same,Pulp Firmness - Difference from Untreated Control,"avocados [2]; MAP bag, 600 ppb MCP, day 0",84 Ns
same,Pulp Firmness - Difference from Untreated Control,"avocados [2]; MAP bag, 600 ppb MCP, day 1",46 Ns
same,Pulp Firmness - Difference from Untreated Control,"avocados [2]; MAP bag, 600 ppb MCP, day 2",39 Ns
same,Pulp Firmness - Difference from Untreated Control,"avocados [2]; MAP bag, 600 ppb MCP, day 3",59.3 Ns
same,Pulp Firmness - Difference from Untreated Control,"avocados [2]; MAP bag, 600 ppb MCP, day 4",40 Ns
same,Pulp Firmness - Difference from Untreated Control,"avocados [2]; MAP bag, 900 ppb MCP, day 0",93 Ns
same,Pulp Firmness - Difference from Untreated Control,"avocados [2]; MAP bag, 900 ppb MCP, day 1",61 Ns
same,Pulp Firmness - Difference from Untreated Control,"avocados [2]; MAP bag, 900 ppb MCP, day 2",52 Ns
same,Pulp Firmness - Difference from Untreated Control,"avocados [2]; MAP bag, 900 ppb MCP, day 3",49.3 Ns
same,Pulp Firmness - Difference from Untreated Control,"avocados [2]; MAP bag, 900 ppb MCP, day 4",46 Ns
same,improvement over the untreated control (pulp firmness),"avocados [2]; MCP alone at 600 ppb, day 3",4 lbf
same,Pulp Firmness - Difference from Untreated Control,"avocados [2]; No Bag, 600 ppb MCP, day 0",29 Ns
same,Pulp Firmness - Difference from Untreated Control,"avocados [2]; No Bag, 600 ppb MCP, day 1",14 Ns
same,Pulp Firmness - Difference from Untreated Control,"avocados [2]; No Bag, 600 ppb MCP, day 2",10 Ns
same,Pulp Firmness - Difference from Untreated Control,"avocados [2]; No Bag, 600 ppb MCP, day 3",17.3 Ns
same,Pulp Firmness - Difference from Untreated Control,"avocados [2]; No Bag, 600 ppb MCP, day 4",12 Ns
same,Skin Color ratings,"avocados [3]; MAP bag, 300 ppb MCP, day 0",1.7
same,Skin Color ratings,"avocados [3]; MAP bag, 300 ppb MCP, day 1",2.9
same,Skin Color ratings,"avocados [3]; MAP bag, 300 ppb MCP, day 2",2.3
same,Skin Color ratings,"avocados [3]; MAP bag, 300 ppb MCP, day 3",2.8
same,Skin Color ratings,"avocados [3]; MAP bag, 300 ppb MCP, day 4",2.3
same,Skin Color ratings,"avocados [3]; MAP bag, 600 ppb MCP, day 0",1.7
same,Skin Color ratings,"avocados [3]; MAP bag, 600 ppb MCP, day 1",2.3
same,Skin Color ratings,"avocados [3]; MAP bag, 600 ppb MCP, day 2",2.3
same,Skin Color ratings,"avocados [3]; MAP bag, 600 ppb MCP, day 3",2.2
same,Skin Color ratings,"avocados [3]; MAP bag, 600 ppb MCP, day 4",2.1
same,Skin Color ratings,"avocados [3]; MAP bag, 900 ppb MCP, day 0",1.6
same,Skin Color ratings,"avocados [3]; MAP bag, 900 ppb MCP, day 1",2.3
same,Skin Color ratings,"avocados [3]; MAP bag, 900 ppb MCP, day 2",2.3
same,Skin Color ratings,"avocados [3]; MAP bag, 900 ppb MCP, day 3",2.3
same,Skin Color ratings,"avocados [3]; MAP bag, 900 ppb MCP, day 4",2.4
same,Skin Color ratings,"avocados [3]; No Bag, 600 ppb MCP, day 0",2.6
same,Skin Color ratings,"avocados [3]; No Bag, 600 ppb MCP, day 1",3.0
same,Skin Color ratings,"avocados [3]; No Bag, 600 ppb MCP, day 2",2.8
same,Skin Color ratings,"avocados [3]; No Bag, 600 ppb MCP, day 3",3.8
same,Skin Color ratings,"avocados [3]; No Bag, 600 ppb MCP, day 4",3.4
same,firmness and skin color by application rate,avocados [4]; rate of 1500 ppb in MAP bags,best result for both firmness and skin color
same,combined effect of MAP bags and SmartFresh applications,avocados [4]; rates equal or higher than 500 ppb,synergistic effect
same,combined effect of MAP bags and SmartFresh application,avocados [5],synergistic effect
same,"Skin Color on Day 8, Color Rating",avocados [6]; MAP bag,4.2
same,"Skin Color on Day 8, Color Rating",avocados [6]; no bag,5
same,effect of combining MAP bag and 1-MCP on pulp firmness,"avocados [7]; MAP bags and 900 ppb 1-MCP, days 1-4",synergistic benefit to pulp firmness
same,pulp firmness compared with other treatments,"avocados [7]; MAP bags and 900 ppb of 1-MCP, days 1-4",best pulp firmness
same,Pulp Firmness Difference from the Control Sample,"avocados [7]; MAP bag, day 0",13.8 Ns
same,Pulp Firmness Difference from the Control Sample,"avocados [7]; MAP bag, day 1",30.4 Ns
same,Pulp Firmness Difference from the Control Sample,"avocados [7]; MAP bag, day 2",14.6 Ns
same,Pulp Firmness Difference from the Control Sample,"avocados [7]; MAP bag, day 3",21.4 Ns
same,Pulp Firmness Difference from the Control Sample,"avocados [7]; MAP bag, day 4",14.8 Ns
same,Pulp Firmness Difference from the Control Sample,"avocados [7]; Poly bag, day 0",0.1 Ns
same,Pulp Firmness Difference from the Control Sample,"avocados [7]; Poly bag, day 1",1.1 Ns
same,Pulp Firmness Difference from the Control Sample,"avocados [7]; Poly bag, day 2",0.6 Ns
same,Pulp Firmness Difference from the Control Sample,"avocados [7]; Poly bag, day 3",1.4 Ns
same,Pulp Firmness Difference from the Control Sample,"avocados [7]; Poly bag, day 4",0.1 Ns
